Each compound was assayed against T1, mouse P-gp (Mus musculus, UniProt P21447, N83Q/N87Q/N90Q) (assay: Yeast chemosensitization). Conditions: P-gp-expressing yeast, +10 μM DOX.
Format: cell-based

T1 sequence (P21447 whole entry N83Q/N87Q/N90Q): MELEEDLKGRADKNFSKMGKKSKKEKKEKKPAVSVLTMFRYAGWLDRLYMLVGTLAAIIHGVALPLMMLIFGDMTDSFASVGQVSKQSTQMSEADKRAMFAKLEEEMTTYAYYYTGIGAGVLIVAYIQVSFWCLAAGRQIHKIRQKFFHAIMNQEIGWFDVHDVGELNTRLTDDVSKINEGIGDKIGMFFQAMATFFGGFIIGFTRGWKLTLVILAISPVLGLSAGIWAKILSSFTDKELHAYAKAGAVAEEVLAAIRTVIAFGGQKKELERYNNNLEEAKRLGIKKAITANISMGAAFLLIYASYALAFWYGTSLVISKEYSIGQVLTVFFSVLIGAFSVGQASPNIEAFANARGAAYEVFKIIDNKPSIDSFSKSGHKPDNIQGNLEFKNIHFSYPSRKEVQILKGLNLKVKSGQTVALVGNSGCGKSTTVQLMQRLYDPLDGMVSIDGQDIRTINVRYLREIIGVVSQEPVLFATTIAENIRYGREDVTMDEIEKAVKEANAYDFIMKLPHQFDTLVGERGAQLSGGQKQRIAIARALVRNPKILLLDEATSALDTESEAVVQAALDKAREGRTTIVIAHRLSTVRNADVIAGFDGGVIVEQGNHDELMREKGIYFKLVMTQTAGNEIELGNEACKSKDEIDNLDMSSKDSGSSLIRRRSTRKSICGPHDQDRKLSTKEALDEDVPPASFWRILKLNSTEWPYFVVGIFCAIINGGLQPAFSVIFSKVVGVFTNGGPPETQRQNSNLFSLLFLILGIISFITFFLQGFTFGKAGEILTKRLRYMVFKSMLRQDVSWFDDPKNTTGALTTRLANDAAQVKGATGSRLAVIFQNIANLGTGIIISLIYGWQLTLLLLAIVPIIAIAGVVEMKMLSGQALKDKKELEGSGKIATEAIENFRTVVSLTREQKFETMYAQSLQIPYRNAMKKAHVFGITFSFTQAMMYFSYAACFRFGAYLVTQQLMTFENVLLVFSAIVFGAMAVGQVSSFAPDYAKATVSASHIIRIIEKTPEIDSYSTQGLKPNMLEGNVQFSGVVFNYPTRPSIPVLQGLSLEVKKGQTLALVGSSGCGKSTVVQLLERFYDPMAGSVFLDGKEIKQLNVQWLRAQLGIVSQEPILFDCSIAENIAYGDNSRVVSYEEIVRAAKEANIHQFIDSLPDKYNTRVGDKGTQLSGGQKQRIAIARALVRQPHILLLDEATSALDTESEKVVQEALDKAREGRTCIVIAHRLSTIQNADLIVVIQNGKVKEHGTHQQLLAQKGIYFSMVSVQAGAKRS

Row | SMILES | IYeast, inhibition in the yeast cytotoxicity assay
1 | ClC(Cl)=C(c1ccc(Cl)cc1)c1ccc(Cl)cc1 [4,4′-DDE, dichlorodiphenyldichloroethylene] | Y
2 | ClC1=C(Cl)C2(Cl)C3C4C=CC(C4)C3C1(Cl)C2(Cl)Cl (stereo not shown) [Aldrin] | Y
3 | CC(C)(c1ccc(O)cc1)c1ccc(O)cc1 [Bisphenol A] | N
4 | CCCCC(CC)COC(=O)c1ccccc1C(=O)OCC(CC)CCCC (stereo not shown) [DEHP, di(2-ethylhexyl)phthalate] | N
5 | ClC1=C(Cl)[C@]2(Cl)[C@@H]3[C@@H]4C[C@@H]([C@H]5O[C@@H]45)[C@@H]3[C@@]1(Cl)C2(Cl)Cl [Dieldrin] | Y
6 | ClC1=C(Cl)C2(Cl)C3C4CC(C5OC45)C3C1(Cl)C2(Cl)Cl (stereo not shown) [Endrin] | Y
7 | ClC1=C(Cl)C2(Cl)C3C(Cl)C=CC3C1(Cl)C2(Cl)Cl (stereo not shown) [Heptachlor] | N
8 | COc1ccc(C(c2ccc(OC)cc2)C(Cl)(Cl)Cl)cc1 [Methoxychlor] | N
9 | ClC1(Cl)C2(Cl)C3(Cl)C4(Cl)C(Cl)(Cl)C5(Cl)C3(Cl)C1(Cl)C5(Cl)C24Cl (stereo not shown) [Mirex] | N
10 | Brc1ccc(Oc2ccccc2)cc1 [PBDE-3] | N
11 | Brc1ccc(Oc2cc(Br)ccc2Br)c(Br)c1 [PBDE-49] | Y
12 | Brc1ccc(Oc2c(Br)cc(Br)cc2Br)c(Br)c1 [PBDE-100] | Y
13 | Brc1c(Br)c(Br)c(Oc2c(Br)c(Br)c(Br)c(Br)c2Br)c(Br)c1Br [PBDE-209] | N
14 | Clc1ccc(-c2cc(Cl)c(Cl)cc2Cl)cc1Cl [PCB-118] | N
15 | Clc1ccccc1-c1c(Cl)c(Cl)c(Cl)c(Cl)c1Cl [PCB-142] | Y
16 | Clc1cc(Cl)c(-c2c(Cl)cccc2Cl)c(Cl)c1Cl [PCB-145] | Y
17 | Clc1ccc(-c2c(Cl)c(Cl)cc(Cl)c2Cl)c(Cl)c1 [PCB-147] | Y
18 | Clc1cc(Cl)c(Cl)c(-c2c(Cl)cccc2Cl)c1Cl [PCB-152] | N
19 | Clc1cc(Cl)c(-c2cc(Cl)c(Cl)cc2Cl)cc1Cl [PCB-153] | N
20 | Clc1cc(Cl)c(-c2cc(Cl)c(Cl)cc2Cl)c(Cl)c1 [PCB-154] | N
21 | Clc1cc(Cl)cc(-c2c(Cl)cc(Cl)c(Cl)c2Cl)c1 [PCB-161] | N
22 | Clc1cc(Cl)c(-c2cc(Cl)c(Cl)c(Cl)c2)c(Cl)c1 [PCB-168] | N
23 | Clc1cc(-c2cc(Cl)c(Cl)c(Cl)c2)cc(Cl)c1Cl [PCB-169] | N
24 | Clc1cccc(Cl)c1-c1c(Cl)c(Cl)c(Cl)c(Cl)c1Cl [PCB-186] | N
25 | O=C(O)C(F)(F)C(F)(F)C(F)(F)C(F)(F)C(F)(F)C(F)(F)C(F)(F)F [PFOA, perfluorooctanoic acid] | N
26 | O=S(=O)(O)C(F)(F)C(F)(F)C(F)(F)C(F)(F)C(F)(F)C(F)(F)C(F)(F)C(F)(F)F [PFOS, perfluorooctane sulfonate] | N
27 | Cl[C@H]1[C@H](Cl)[C@H](Cl)[C@@H](Cl)[C@H](Cl)[C@H]1Cl [α-HCH, α-hexachlorocyclohexane] | N
28 | Cl[C@H]1[C@H](Cl)[C@@H](Cl)[C@H](Cl)[C@@H](Cl)[C@@H]1Cl [β-HCH, β-hexachlorocyclohexane] | N
29 | Cl[C@H]1[C@H](Cl)[C@@H](Cl)[C@@H](Cl)[C@H](Cl)[C@H]1Cl [γ-HCH (lindane), lindane] | N

Same assay, conditions: cellular assay, +DOX

Row | SMILES | Chemosensitizing effect on P-gp-expressing yeast toward DOX (in words)
30 | ClC1=C(Cl)[C@]2(Cl)[C@@H]3[C@@H]4C[C@@H]([C@H]5O[C@@H]45)[C@@H]3[C@@]1(Cl)C2(Cl)Cl [Dieldrin] | markedly lower inhibitory effect
31 | ClC1=C(Cl)C2(Cl)C3C4CC(C5OC45)C3C1(Cl)C2(Cl)Cl (stereo not shown) [Endrin] | most pronounced chemosensitizing effect

These compounds were tested against T1, mouse P-gp (assay: not given). Conditions: endrin vs its stereoisomer dieldrin.

Row | SMILES | Potency in ATPase assay relative to dieldrin [times]
32 | ClC1=C(Cl)C2(Cl)C3C4CC(C5OC45)C3C1(Cl)C2(Cl)Cl (stereo not shown) [Endrin] | ~20

Each compound was assayed against T1, mouse P-gp (assay: biochemical). Conditions: not given.

Row | SMILES | IC50 [µM]
33 | ClC(Cl)=C(c1ccc(Cl)cc1)c1ccc(Cl)cc1 [4,4′-DDE, dichlorodiphenyldichloroethylene] | 31.3
34 | ClC1=C(Cl)C2(Cl)C3C4C=CC(C4)C3C1(Cl)C2(Cl)Cl (stereo not shown) [Aldrin] | 26.2
35 | ClC1=C(Cl)[C@]2(Cl)[C@@H]3[C@@H]4C[C@@H]([C@H]5O[C@@H]45)[C@@H]3[C@@]1(Cl)C2(Cl)Cl [Dieldrin] | 21.8
36 | ClC1=C(Cl)C2(Cl)C3C4CC(C5OC45)C3C1(Cl)C2(Cl)Cl (stereo not shown) [Endrin] | 1.1
37 | ClC1=C(Cl)C2(Cl)C3C(Cl)C=CC3C1(Cl)C2(Cl)Cl (stereo not shown) [Heptachlor] | 10.4
38 | COc1ccc(C(c2ccc(OC)cc2)C(Cl)(Cl)Cl)cc1 [Methoxychlor] | 21.7
39 | ClC1(Cl)C2(Cl)C3(Cl)C4(Cl)C(Cl)(Cl)C5(Cl)C3(Cl)C1(Cl)C5(Cl)C24Cl (stereo not shown) [Mirex] | 3
40 | Brc1ccc(Oc2c(Br)cc(Br)cc2Br)c(Br)c1 [PBDE-100] | 23.2
41 | O=C(O)C(F)(F)C(F)(F)C(F)(F)C(F)(F)C(F)(F)C(F)(F)C(F)(F)F [PFOA, perfluorooctanoic acid] | 156
42 | Cl[C@H]1[C@H](Cl)[C@H](Cl)[C@@H](Cl)[C@H](Cl)[C@H]1Cl [α-HCH, α-hexachlorocyclohexane] | 26.8
43 | Cl[C@H]1[C@H](Cl)[C@@H](Cl)[C@@H](Cl)[C@H](Cl)[C@H]1Cl [γ-HCH (lindane), lindane] | 82.6

Reference: article PMC4846432 (Science Advances, 2016)
